# Measured values reported in article PMC12394665, “Structural and biochemical basis for activity of Aspergillus nidulans α-1,3-glucanases from glycoside hydrolase family 71” (Communications Biology, 2025).
# How the values were obtained:
# AnGH71C [1] = target: T1, AnGH71C (Aspergillus nidulans, UniProt G5EB58); assay: X-ray crystal structure (soak), […] Å; assay type: binding
# T1 construct: gene ANIA_07349; putative signal peptide removed; N-terminal His6 tag, modified pET-28a with TEV site; recombinant E. coli BL21 (DE3); IMAC and gel filtration
# T1 sequence (G5EB58 23-431): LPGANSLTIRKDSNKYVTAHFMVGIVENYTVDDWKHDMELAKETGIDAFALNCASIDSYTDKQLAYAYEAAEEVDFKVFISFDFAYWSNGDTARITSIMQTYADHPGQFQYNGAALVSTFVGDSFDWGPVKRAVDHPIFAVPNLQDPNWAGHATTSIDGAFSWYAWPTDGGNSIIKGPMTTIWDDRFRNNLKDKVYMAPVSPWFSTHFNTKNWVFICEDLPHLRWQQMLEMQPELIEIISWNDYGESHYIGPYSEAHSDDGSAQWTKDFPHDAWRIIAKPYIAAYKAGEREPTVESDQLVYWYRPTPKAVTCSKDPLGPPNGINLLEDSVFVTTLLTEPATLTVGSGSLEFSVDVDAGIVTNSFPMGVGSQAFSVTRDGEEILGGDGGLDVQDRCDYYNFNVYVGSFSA
# AnGH71C [2] = target: T1, AnGH71C; assay: X-ray crystal structure (soak), […] Å; settings: crystal soaked 2 min with saturating ligand; two glucose molecules in the binding cleft per protein molecule
smiles,measurement,setting,value
OC[C@H]1O[C@H](O[C@@H]2[C@@H](O)[C@@H](O[C@H]3[C@H](O)[C@@H](CO)OC(O)[C@@H]3O)O[C@H](CO)[C@H]2O)[C@H](O)[C@@H](O)[C@@H]1O (stereo partly drawn) [nigerotriose],"X-ray crystal structure (soak), 1.92 Å","AnGH71C [1]; crystal soaked with nigerotetraose, nigerotriose in active-site cleft subsites, one extra on cleft surface in chain B",four protein molecules of the nigerotetraose-soaked crystals contain distinct combinations of nigerotriose and nigerotetraose
OC[C@H]1OC(O)[C@H](O)[C@@H](O)[C@@H]1O (stereo partly drawn) [glucose],"X-ray crystal structure (soak), 1.37 Å",AnGH71C [2],glucose-soaked crystals each contain two glucose molecules located in the same position
OC[C@H]1O[C@H](O[C@@H]2[C@@H](O)[C@@H](O[C@@H]3[C@@H](O)[C@@H](O[C@H]4[C@H](O)[C@@H](CO)OC(O)[C@@H]4O)O[C@H](CO)[C@H]3O)O[C@H](CO)[C@H]2O)[C@H](O)[C@@H](O)[C@@H]1O (stereo partly drawn) [nigerotetraose],"X-ray crystal structure (soak), 1.92 Å","AnGH71C [1]; crystal soaked 2 min with saturating ligand, active-site cleft, -4 to -1 subsites among others, α- and β-anomers",Complexes of AnGH71C with glucose and nigerotriose/nigerotetraose were obtained by soaking crystals with ligand
